The text below walks through data of patent US9187450B2, “Substituted pyridine compound” (Daiichi Sankyo Company, Limited, priority 2010, dated 2015).

For orientation: IC50 means the point on the concentration scale where inhibition reaches its midpoint.

For the assay, the target named is recombinant human CETP protein (Homo sapiens (Human), UniProt P11597). Briefly: Test of CETP inhibition activity (in vitro, buffer-based). It counts as biochemical. The conditions noted are these: reconstituted HDL with [14C]-labeled cholesteryl ester, acceptor lipoprotein, 37° C. Here is the method: Test of CETP Inhibition Activity (In Vitro, Buffer-Based)
(1) Preparation of Reconstituted HDL
Cholesterol (1.125 μmol), phosphatidyl choline (4.5 μmol) and [^14C]-labeled cholesteryl ester (2.0 μCi; 40 μl) were taken in a glass test tube and well mixed with a vortex, and dried under a nitrogen gas current so that it formed a thin film. The obtained mixture was dissolved in ethanol (200 μl), which was designated as Solution A. A PBS solution [a mixed solution of Na2HPO4 (30 mM), KH2PO4 (8.8 mM), NaCl (60 mM) and EDTA (pH 7.4; 0.67 mM); 4 ml] was taken in a tube and the reaction solution was vigorously stirred with a vortex under a nitrogen current. The above-described Solution A was gently injected into this mixture with a syringe and the reaction solution was vigorously stirred with a vortex for 5 minutes under a nitrogen current. Sodium cholate ([…]; 0.38 ml) was added to the obtained mixture and the reaction solution was stirred for 2 minutes. ApoA-I protein (3 mg) was added to the obtained mixture and the reaction solution was stirred for 2 minutes. The obtained mixture was adjusted to 5 ml with the PBS solution and then dialyzed with the PBS solution. The obtained mixture was designated as the reconstituted HDL.
(2) Preparation of Acceptor Lipoprotein
NaBr was added to the plasma of a healthy person and the density of the mixture was adjusted to 1.019, and the mixture was subjected to density gradient centrifugation (40000 rpm, for 16 hours) to remove the fraction having a density of less than 1.019. NaBr was added to the obtained mixture and the density of the solution was adjusted to 1.063, and the solution was subjected to density gradient centrifugation (40000 rpm, 18 hours) to provide the fraction consisting of IDL (intermediate density lipoprotein) and LDL (1.019<density<1.063). The obtained fraction was dialyzed with the PBS solution. The obtained mixture was designated as the acceptor lipoprotein.
(3) Measurement of CETP Inhibition Activity
A recombinant human CETP protein (manufactured by Roar Biomedical Inc.; 4.5 ng), the acceptor lipoprotein described in (2) above (32.5 μg) and 5,5′-dithio-bis-(2-nitrobenzoic acid) (7 mM, 15 μl) were taken in a 96 well plate and the total amount of the mixture was adjusted to 48.5 μl with the PBS solution. The test compound [DMSO solution (concentration: 0.15, 0.5, 1.5, 5, 15, 50, 150 and 500 μM; 1.5 μl] was added to each well and the mixture was incubated in a thermostatic bath at 37° C. for 60 minutes. The reconstituted HDL (50 μl) described in (1) above was added to each well and the mixture was reacted in a thermostatic bath at 37° C. for 60 minutes. The 96 well plate was moved onto ice and a precipitation reagent [a mixed solution of magnesium chloride (60 mM) and 0.1% dextran sulfate [1/1 (v/v)]; 15 μl] was added to each well, and then the mixture was allowed to stand on ice for 15 minutes. The reaction solution (80 μl) in each well was moved to a filter plate and centrifuged at 1500 rpm for 1 minute, and the filtrate which passed through the filter was designated as the HDL fraction and the radioactivity thereof was measured with a scintillation counter. The percentage decrease in radioactivity in the case where the test compound was added in comparison with that in case where the test compound was not added was designated as the percentage CETP inhibition. The IC50 value was calculated from the percentage CETP inhibition.

recombinant human CETP protein, sequence (P11597 18-493): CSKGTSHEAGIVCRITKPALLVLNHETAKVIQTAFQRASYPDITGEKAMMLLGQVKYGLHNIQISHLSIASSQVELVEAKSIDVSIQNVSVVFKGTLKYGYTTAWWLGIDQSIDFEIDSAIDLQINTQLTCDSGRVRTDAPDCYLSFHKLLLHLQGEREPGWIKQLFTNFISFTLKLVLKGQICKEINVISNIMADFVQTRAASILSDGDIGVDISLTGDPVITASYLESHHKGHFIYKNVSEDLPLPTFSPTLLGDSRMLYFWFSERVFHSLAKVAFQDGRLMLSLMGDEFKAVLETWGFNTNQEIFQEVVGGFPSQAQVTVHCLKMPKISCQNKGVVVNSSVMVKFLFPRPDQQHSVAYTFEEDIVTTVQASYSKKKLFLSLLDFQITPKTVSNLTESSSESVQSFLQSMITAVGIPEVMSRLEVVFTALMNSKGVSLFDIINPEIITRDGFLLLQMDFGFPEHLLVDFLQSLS

For `C[C@H](O)COc1cnc(N2CCC(c3nc4c(c(C5CCC(F)(F)CC5)c3[C@@H](F)c3ccc(C(F)(F)F)cc3)[C@@H](O)CC(C)(C)C4)CC2)nc1` [Example 37, (−)-4-(4,4-Difluorocyclohexyl)-3-{fluoro[4-(trifluoromethyl)phenyl]methyl}-2-[1-(5-{[(2S)-2-hydroxypropyl]oxy}pyrimidin-2-yl)piperidin-4-yl]-7,7-dimethyl-5,6,7,8-tetrahydroquinolin-5-ol], the IC50 amounted to 25 nM. As to `CC1(C)Cc2nc(C3CCN(c4ncc(C5=CCCCC5)cn4)CC3)c([C@@H](F)c3ccc(C(F)(F)F)cc3)c(C3CCC(F)(F)CC3)c2[C@@H](O)C1` (single isomer, unassigned) [Example 18, (−)-2-{1-[5-(Cyclohex-1-ene-1-yl)pyrimidin-2-yl]piperidin-4-yl}-4-(4,4-difluorocyclohexyl)-3-{fluoro[4-(trifluoromethyl)phenyl]methyl}-7,7-dimethyl-5,6,7,8-tetrahydroquinolin-5-ol], the IC50 is 177 nM. Regarding `CC(C)(O)COc1cnc(N2CCC(c3nc4c(c(C5CCC(F)(F)CC5)c3[C@@H](F)c3ccc(C(F)(F)F)cc3)[C@@H](O)CC(C)(C)C4)CC2)nc1` (stereo in doubt) [Example 44, 4-(4,4-Difluorocyclohexyl)-3-{fluoro[4-(trifluoromethyl)phenyl]methyl}-2-{1-[5-(2-hydroxy-2-methylpropoxy)pyrimidin-2-yl]piperidin-4-yl}-7,7-dimethyl-5,6,7,8-tetrahydroquinolin-5-ol], the IC50 stood at 21 nM. With `CC1(C)Cc2nc(C3CCN(c4ncc(-c5cccc(C(=O)O)c5)cn4)CC3)c([C@@H](F)c3ccc(C(F)(F)F)cc3)c(C3CCC(F)(F)CC3)c2[C@@H](O)C1` [Example 55, (−)-2-{1-[5-(3-Carboxyphenyl)pyrimidin-2-yl]piperidin-4-yl}-4-(4,4-difluorocyclohexyl)-3-{fluoro[4-(trifluoromethyl)phenyl]methyl}-7,7-dimethyl-5,6,7,8-tetrahydroquinolin-5-ol], the concentration for half-maximal inhibition (IC50) was found to be 59 nM. Take `CC(C)CCOc1cnc(N2CCC(c3nc4c(c(C5CCC(F)(F)CC5)c3[C@@H](F)c3ccc(C(F)(F)F)cc3)[C@@H](O)CC(C)(C)C4)CC2)nc1` (single isomer, unassigned) [Example 22, (−)-4-(4,4-difluorocyclohexyl)-3-{fluoro[4-(trifluoromethyl)phenyl]methyl}-7,7-dimethyl-2-{1-[5-(3-methylbutoxyl)pyrimidine-2-yl]piperidin-4-yl}-5,6,7,8-tetrahydroquinoline-5-ol]: the half-maximal inhibitory concentration (IC50) amounted to 111 nM.

In the case of `CC(C)/C=C/c1cnc(N2CCC(c3nc4c(c(C5CCC(F)(F)CC5)c3[C@@H](F)c3ccc(C(F)(F)F)cc3)[C@@H](O)CC(C)(C)C4)CC2)nc1` (single isomer, unassigned) [Example 34, (−)-4-(4,4-Difluorocyclohexyl)-3-{fluoro[4-(trifluoromethyl)phenyl]methyl}-7,7-dimethyl-2-(1-{5-[(1E)-3-methylbut-1-ene-1-yl]pyrimidin-2-yl}piperidin-4-yl)-5,6,7,8-tetrahydroquinolin-5-ol], the IC50 is 54 nM. For `CSc1cnc(N2CCC(c3nc4c(c(C5CCC(F)(F)CC5)c3[C@@H](F)c3ccc(C(F)(F)F)cc3)[C@@H](O)CC(C)(C)C4)CC2)nc1` (single isomer, unassigned) [Example 53, (−)-4-(4,4-Difluorocyclohexyl)-3-{fluoro[4-(trifluoromethyl)phenyl]methyl}-7,7-dimethyl-2-[1-(5-methylthiopyrimidin-2-yl)-piperidin-4-yl]-5,6,7,8-tetrahydroquinolin-5-ol], the IC50 was determined as 34 nM.

`CCOCc1cnc(N2CCC(c3nc4c(c(C5CCC(F)(F)CC5)c3[C@@H](F)c3ccc(C(F)(F)F)cc3)[C@@H](O)CC(C)(C)C4)CC2)nc1` (single isomer, unassigned) [Example 26, (−)-4-(4,4-Difluorocyclohexyl)-2-{1-[5-(ethoxymethyl)pyrimidin-2-yl]piperidin-4-yl}-3-{fluoro[4-(trifluoromethyl)phenyl]methyl}-7,7-dimethyl-5,6,7,8-tetrahydroquinolin-5-ol]: the IC50 was 45 nM. In the case of `CC1(C)Cc2nc(C3CCN(c4ncc(CCCC(F)(F)F)cn4)CC3)c([C@@H](F)c3ccc(C(F)(F)F)cc3)c(C3CCC(F)(F)CC3)c2[C@@H](O)C1` (single isomer, unassigned) [Example 33, 4-(4,4-Difluorocyclohexyl)-3-{fluoro[4-(trifluoromethyl)phenyl]methyl}-7,7-dimethyl-2-{1-[5-(4,4,4-trifluorobutyl)pyrimidin-2-yl]piperidin-4-yl}-5,6,7,8-tetrahydroquinolin-5-ol], the IC50 is 48 nM.

As for `Cc1noc(-c2cnc(N3CCC(c4nc5c(c(C6CCC(F)(F)CC6)c4[C@@H](F)c4ccc(C(F)(F)F)cc4)[C@@H](O)CC(C)(C)C5)CC3)nc2)n1` (single isomer, unassigned) [Example 35, 4-(4,4-Difluorocyclohexyl)-3-{fluoro[4-(trifluoromethyl)phenyl]methyl}-7,7-dimethyl-2-{1-[5-(3-methyl-1,2,4-oxadiazol-5-yl)pyrimidin-2-yl]piperidin-4-yl}-5,6,7,8-tetrahydroquinolin-5-ol], the IC50 came out at 88 nM. With `CC(C)COc1cnc(N2CCC(c3nc4c(c(C5CCC(F)(F)CC5)c3[C@@H](F)c3ccc(C(F)(F)F)cc3)[C@@H](O)CC(C)(C)C4)CC2)nc1` (single isomer, unassigned) [Example 21, (−)-4-(4,4-difluorocyclohexyl)-3-{fluoro[4-(trifluoromethyl)phenyl]methyl}-7,7-dimethyl-2-{1-[5-(2-methylpropoxy)pyrimidine-2-yl]piperidin-4-yl}-5,6,7,8-tetrahydroquinoline-5-ol], the IC50 amounted to 99 nM. As to `CC1(C)Cc2nc(C3CCN(c4ncc(OCC(C)(CO)CO)cn4)CC3)c([C@@H](F)c3ccc(C(F)(F)F)cc3)c(C3CCC(F)(F)CC3)c2[C@@H](O)C1` (single isomer, unassigned) [Example 50, (−)-4-(4,4-Difluorocyclohexyl)-3-{fluoro[4-(trifluoromethyl)phenyl]methyl}-2-(1-{5-[3-hydroxy-2-(hydroxymethyl)-2-methylpropoxy]pyrimidin-2-yl}piperidin-4-yl)-7,7-dimethyl-5,6,7,8-tetrahydroquinolin-5-ol], the IC50 turned out to be 13 nM. On to `CC(C)Oc1cnc(N2CCC(c3nc4c(c(C5CCC(F)(F)CC5)c3[C@@H](F)c3ccc(C(F)(F)F)cc3)[C@@H](O)CC(C)(C)C4)CC2)nc1` (single isomer, unassigned) [Example 14, (−)-4-(4,4-Difluorocyclohexyl)-3-{fluoro[4-(trifluoromethyl)phenyl]methyl}-7,7-dimethyl-2-{1-[5-(propan-2-yloxy)pyrimidin-2-yl]piperidin-4-yl}-5,6,7,8-tetrahydroquinolin-5-ol], for which the IC50 was 97 nM. With `CC1(C)Cc2nc(C3CCN(c4ncc(N5CCOCC5)cn4)CC3)c([C@@H](F)c3ccc(C(F)(F)F)cc3)c(C3CCC(F)(F)CC3)c2[C@@H](O)C1` (single isomer, unassigned) [Example 5, (−)-4-(4,4-Difluorocyclohexyl)-3-{fluoro[4-(trifluoromethyl)phenyl]methyl}-7,7-dimethyl-2-{1-[5-(morpholin-4-yl)pyrimidin-2-yl]piperidin-4-yl}-5,6,7,8-tetrahydroquinolin-5-ol], the IC50 is 250 nM. The same measure for `CC(C)OCc1cnc(N2CCC(c3nc4c(c(C5CCC(F)(F)CC5)c3[C@@H](F)c3ccc(C(F)(F)F)cc3)[C@@H](O)CC(C)(C)C4)CC2)nc1` (single isomer, unassigned) [Example 28, (−)-4-(4,4-difluorocyclohexyl)-3-{fluoro[4-(trifluoromethyl)phenyl]methyl}-7,7-dimethyl-2-(1-{5-[(propan-2-yloxy)methyl]pyrimidine-2-yl}piperidin-4-yl)-5,6,7,8-tetrahydroquinoline-5-ol]: 78 nM.
